Laboratory results as given in patent US10927105B1 (Lundbeck La Jolla Research Center, Inc., priority 2017, dated 2021).

Target: MAGL (Homo sapiens (Human), UniProt Q99685)
Assay: In vitro competitive activity-based protein profiling (human prefrontal cortex membrane fractions, FP-Rh probe), MAGL band
Settings: read-out: MAGL IC50 (μM) (human); human prefrontal cortex membrane fractions

Chain of MAGL (Q99685 whole entry): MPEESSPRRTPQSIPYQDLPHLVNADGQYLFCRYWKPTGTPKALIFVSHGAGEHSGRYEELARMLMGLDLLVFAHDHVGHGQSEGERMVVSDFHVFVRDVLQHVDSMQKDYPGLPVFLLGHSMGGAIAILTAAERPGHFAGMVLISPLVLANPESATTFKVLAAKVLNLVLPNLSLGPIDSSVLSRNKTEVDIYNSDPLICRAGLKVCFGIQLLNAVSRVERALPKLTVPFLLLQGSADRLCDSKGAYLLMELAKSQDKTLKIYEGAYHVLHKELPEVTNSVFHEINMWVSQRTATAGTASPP

SMILES	IC50
C[C@@H]1CN(Cc2ccc(-c3ccccc3)cc2Cl)CCN1C(=O)n1ccc(C(=O)O)n1 [Example 291, (R)-1-(4-((3-chloro-[1,1′-biphenyl]-4-yl)methyl)-2-methylpiperazine-1-carbonyl)-1H-pyrazole-3-carboxylic acid]	< 0.1 µM
O=C(O)c1nn(C(=O)N2C[C@H]3C[C@H](OCc4cc(F)cc(Cl)c4)C[C@H]3C2)cc1Cl [Example 296, 4-chloro-1-(trans-5-((3-chloro-5-fluorobenzyl)oxy)-octahydrocyclopenta-[c]pyrrole-2-carbonyl)-1H-pyrazole-3-carboxylic acid]	< 0.1 µM
C[C@@H]1CN(Cc2ccc(Cl)c(-c3nccs3)c2)CCN1C(=O)n1ccc(C(=O)O)n1 [Example 299, (R)-1-(4-(4-chloro-3-(thiazol-2-yl)benzyl)-2-methylpiperazine-1-carbonyl)-1H-pyrazole-3-carboxylic acid]	< 0.1 µM
Cc1cc(CN2CCCC23CCN(C(=O)n2ccc(C(=O)O)n2)CC3)cc(C(F)(F)F)c1 [Example 303, 1-(1-(3-methyl-5-(trifluoromethyl)-benzyl)-1,8-diazaspiro[4.5]-decane-8-carbonyl)-1H-pyrazole-3-carboxylic acid]	< 0.1 µM
Cc1cn(C(=O)N2C[C@H]3C[C@H](OCc4cccc(C(F)(F)F)c4C)C[C@H]3C2)nc1C(=O)O [Example 306, 4-methyl-1-(trans-5-((2-methyl-3-(trifluoromethyl)-benzyl)oxy)-octahydrocyclopenta-[c]pyrrole-2-carbonyl)-1H-pyrazole-3-carboxylic acid]	< 0.1 µM
O=C(O)c1ccn(C(=O)N2CCC(Oc3cc(N4CCCC4)cc(C(F)(F)F)c3)CC2)n1 [Example 308, 1-(4-(3-(pyrrolidin-1-yl)-5-(trifluoromethyl)-phenoxy)-piperidine-1-carbonyl)-1H-pyrazole-3-carboxylic acid]	< 0.1 µM
C[C@H]1CN(Cc2cccc(Oc3ccc(Cl)cc3)c2)CCN1C(=O)n1ccc(C(=O)O)n1 [Example 311, (S)-1-(4-(3-(4-chlorophenoxy)-benzyl)-2-methylpiperazine-1-carbonyl)-1H-pyrazole-3-carboxylic acid]	< 0.1 µM
O=C(O)c1ccn(C(=O)N2CCC3(CC2)CN(Cc2cc(Cl)ccc2C(F)(F)F)C3)n1 [Example 313, 1-(2-(5-chloro-2-(trifluoromethyl)-benzyl)-2,7-diazaspiro[3.5]-nonane-7-carbonyl)-1H-pyrazole-3-carboxylic acid]	< 0.1 µM

Now from value to compound:

IC50	SMILES
< 0.1 µM	Cc1c(CO[C@@H]2C[C@@H]3CN(C(=O)n4ccc(C(=O)O)n4)C[C@@H]3C2)cccc1C(F)(F)F [Example 289, 1-(cis-5-((2-methyl-3-(trifluoromethyl)-benzyl)oxy)-octahydrocyclopenta-[c]pyrrole-2-carbonyl)-1H-pyrazole-3-carboxylic acid]
< 0.1 µM	Cc1cn(C(=O)N2C[C@H]3C[C@H](OCc4cccc(C(F)(F)F)c4)C[C@H]3C2)nc1C(=O)O [Example 290, 4-methyl-1-(trans-5-((3-(trifluoromethyl)-benzyl)oxy)-octahydrocyclopenta-[c]pyrrole-2-carbonyl)-1H-pyrazole-3-carboxylic acid]
< 0.1 µM	O=C(O)c1nn(C(=O)N2C[C@H]3C[C@H](Oc4cccc(-c5ccccc5)c4)C[C@H]3C2)cc1Cl [Example 304, 1-(trans-5-([1,1′-biphenyl]-3-yloxy)-octahydrocyclopenta-[c]pyrrole-2-carbonyl)-4-chloro-1H-pyrazole-3-carboxylic acid]
< 0.1 µM	O=C(O)c1ccn(C(=O)N2CCC(Oc3ccc(C(F)(F)F)cc3N3CCCC3)CC2)n1 [Example 307, 1-(4-(2-(pyrrolidin-1-yl)-4-(trifluoromethyl)-phenoxy)-piperidine-1-carbonyl)-1H-pyrazole-3-carboxylic acid]
